In patent US10358448B2, “Therapeutic compounds for pain and synthesis thereof” (priority 2015, dated 2019):
Values joined by “and” are separate entries in the source; they are usually repeats but may differ in a detail not shown here. Equal values may be shown once.

Assays:
[1] = system: Taxol model of neuropathic pain; test: Taxol animal model for neuropathic pain in mice; type: in vivo
Source text: (§1) Table 7 summarizes the activity of Formula 1 in mice models of neuropathic pain following repeated daily administration using different routes of administration.

[2] = system: CCl model of neuropathic pain; test: CCl animal model for neuropathic pain in mice; type: in vivo; details: SC, 150 mg/kg, repeated daily administration
Source text: as §1

[3] = PO, 30 mg/kg, repeated daily administration
[4] = SC, doses tested 1, 3, 10 mg/kg, repeated daily administration

| Compound | Duration of activity at maximum effect [1, 3] [days] | Level of activity (% of maximum effect-baseline) [1, 3] [%] | Peak of activity (T) [1, 3] | Dose of maximum activity ([1]; PO, dose tested 30 mg/kg) [mg/kg] | Dose of maximum activity ([1]; SC, doses tested 1, 3, 10 mg/kg) [mg/kg] | Duration of activity at maximum effect [1, 4] [days] | Level of activity (% of maximum effect-baseline) [1, 4] [%] | Duration of activity at maximum effect [2] | Level of activity (% of maximum effect-baseline) [2] | Peak of activity (T) [2] |
| --- | --- | --- | --- | --- | --- | --- | --- | --- | --- | --- |
| CC(C)(C)C(=O)O[C@@H]1C2[C@H]3C[C@H](C[C@@H]1N3CC1CC1)CN2C(=O)CC(F)(F)F (stereo partly drawn) [Formula 1, (2S,3S,6R,7aR)-1-(cyclopropylmethyl)-4-(3,3,3-trifluoropropanoyl)octahydro-1H-2,6-methanopyrrolo[3,2-b]pyridin-3-yl pivalate] | 3 | 100 | 1-24 H | <30 | 1 | 3 | 100 |  |  |  |
| NCC1(CC(=O)O)CCCCC1 [Gabapentin] |  |  |  |  |  |  |  | 4-6 H | >100% and 64% | 2-3 H |
